What was measured:
[1] = tested on: connexin 43 (CX43) of cultured cardiomyocytes; conditions: gallein 100 µM; ref [13]; cited from earlier work
Excerpt: Gallein is an inhibitor of Gβγ-mediated signaling that occupies a “common” interaction surface of Gβγ and inhibits the interaction of Gβγ-regulated proteins with Gβγ [25]. Thus, gallein is expected to block a wide range of Gβγ signals in cells, including CX43 regulation mediated by AGS-Gβγ. We previously demonst ...

[2] = tested on: cardiomyocytes; assay: MTT assay, viability of cardiomyocytes; type: cell-based, Wistar rat
Description: Cardiomyocytes in 24-well culture plates were incubated in PBS (pH 7.4) containing 0.5 mg/ml MTT at 37°C. After for 2 h incubation, the PBS was removed and 100 µl of dimethyl sulfoxide (DMSO) was added to each well to solubilize dark blue formazan products. Absorbance of the colored solution was determined at 595 nm.
Here, we first examined the influence of the AGS8-peptide and gallein on the viability of cells. Cardiomyocytes were incubated with gallein for 24 h, and their viability was determined by MTT assay.
Figure 7 Effect of AGS8-peptide or Gallein on the viability of cardiomyocytes determined by MTT assay. Neonatal cardiomyocytes were cultured for 24-peptide or Gallein. […] N = 5 from 5 independent experiments.

SMILES: O=C1OC2(c3ccccc31)c1ccc(O)c(O)c1Oc1c2ccc(O)c1O [gallein]
- inhibition of hypoxia-induced internalization of CX43 [1]: completely inhibits hypoxia-induced internalization of CX43
- cytotoxicity / viability of cardiomyocytes ([2]; MTT assay, 1 µM, 24 h, N = 5 independent experiments): caused damage in the cardiomyocytes
- cytotoxicity under normoxia ([2]; normoxia): produced deleterious effects

Reference: publication PMC3954831, “Protection of Cardiomyocytes from the Hypoxia-Mediated Injury by a Peptide Targeting the Activator of G-Protein Signaling 8” (PLoS ONE, 2014)
